In patent publication US6965039B2, “7-carboxy-flavone derivatives preparation method and therapeutic use” (Negma-Lerads, priority 2000, dated 2005):
One block for each compound: values may come before it.

Experiments:
[1] = system: TNFα (tumor necrosis factor); test: Inhibition of TNFα secretion on PBMC cells (method of Schindler); assay type: cell-based; details: tests in duplicate, read-out: TNFα, percentage of inhibition
Method: (§1) The inhibiting activity on the secretion of inflammatory cytokines of the compounds of the invention was tested in vitro, more particularly on the secretion of IL-1 (interleukin 1) and on IL-6 and TNFα (tumor necrosis factor), which are the main cytokines related to the arthrotic process.
(§2) The tests on these three cytokines were carried out on PBMC (Peripheral Blood Mononuclear Cells) cells according to the method of Schindler (R. Schindler et al., Blood, (1990) 75, 40-47) using cycloheximide (IL-1) and dexamethasone (IL-6, TNFα) as reference products.
(§3) The results of the tests carried out with the flavone derivatives of the invention described in examples 1, 4 and 6 above [sic] are combined in the following table. The tests were carried out in duplicate, at concentrations of 1 and 10 μM. The results are expressed as percentage of inhibition.

IL-1 (interleukin 1) = test: Inhibition of IL-1 secretion on PBMC cells (method of Schindler); assay type: cell-based; details: tests in duplicate
Method: as §1, §2, §3

IL-6 = test: Inhibition of IL-6 secretion on PBMC cells (method of Schindler); assay type: cell-based; details: tests in duplicate
Method: as §1, §2, §3

prostaglandins (PGE2) = test: Secretion of prostaglandins (PGE2) on differentiated HL-60 cells (method of Honda); assay type: cell-based
Method: The effect of the derivatives of the invention on the secretion of prostaglandins (PGE2), which increase articular inflammation, and of leukotriene (LTB4) was measured on differentiated HL-60 cells using the methods of Honda (M. Honda et al., Diabetes Res., (1990) 14, 43-46) and of Bennett (C. F. Bennett et al., Biochem. J., (1993) 289, 33-39), respectively, using indomethacin and nordihydroguaiaretic acid as reference products.

[2] = read-out: IL1β, percentage of inhibition
[3] = read-out: IL6, percentage of inhibition

- melting point: 270 °C (dec.)
SMILES: O=C(O)c1cc(O)c2c(=O)cc(-c3ccccc3)oc2c1 [Example 1, 5-Hydroxy-2-phenyl-4-oxo-4H-chromene-7-carboxylic acid]
- inhibition at 1 µM ([1]; 1 μM): 61%
- inhibition at 10 µM ([1]; 10 μM): 32%
- inhibition at 1 µM (IL-1 (interleukin 1); 1 μM, read-out: IL1β, percentage of inhibition): 15%
- inhibition at 10 µM (IL-1 (interleukin 1); [2]): 96%
- inhibition at 1 µM (IL-6; 1 μM, read-out: IL6, percentage of inhibition): 50%
- inhibition at 10 µM (IL-6; [3]): 98%

SMILES: COc1ccc(-c2cc(=O)c3c(O)cc(C(=O)O)cc3o2)cc1 [Example 4, 5-Hydroxy-0.2-(4′-methoxyphenyl)-4-oxo-4H-chromene-7-carboxylic acid]
- effect on the secretion of prostaglandins (prostaglandins (PGE2)): stimulating the secretion of prostaglandins
- IL1β, percentage of inhibition (IL-1 (interleukin 1); 1 μM): <10%
- IL6, percentage of inhibition (IL-6; 1 μM): 56%

SMILES: O=C(O)c1cc(O)c2c(=O)cc(-c3ccc(C(F)(F)F)cc3)oc2c1 [Example 6, 5-Hydroxy-2-(4′-trifluoromethylphenyl)-4-oxo-4H-chromene-7-carboxylic acid]
- inhibition at 10 µM (IL-1 (interleukin 1); [2]): 72%
- inhibition at 10 µM (IL-6; [3]): 100%
